According to PubChem BioAssay AID330 (DTP/NCI, 2004):
Values joined by “and” are separate entries in the source; they are usually repeats but may differ in a detail not shown here. Identical values can stand only once. Inconclusive results and toxic doses are left out.

Tested on: P388 leukemia ip, CD2F1 mice, survival T/C
Assay: NCI In Vivo Anticancer Drug Screen. Data for tumor model P388 Leukemia (intraperitoneal) in CD2F1 (CDF1) mice
Conditions: endpoint: median survival time, higher = longer survival
Method in brief: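 Mice carrying the transplanted tumor received test compound or vehicle. Survival was recorded in each group, and the value is the treated-group measurement divided by that of the vehicle-treated control group.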

[1] = dose: 50.0 mg/kg/injection, schedule: Q01DX005 (ip), vehicle: Klucel (hydroxypropylcellulose) (HPC)
[2] = dose: 50.0 mg/kg/injection, schedule: Q01DX001 (ip), vehicle: Klucel (hydroxypropylcellulose) (HPC)
[3] = dose: 200.0 mg/kg/injection, schedule: Q01DX001 (ip), vehicle: Klucel (hydroxypropylcellulose) (HPC)
[4] = dose: 200.0 mg/kg/injection, schedule: Q04DX002 (ip), vehicle: Klucel (hydroxypropylcellulose) (HPC)
[5] = dose: 12.5 mg/kg/injection, schedule: Q01DX009 (ip), vehicle: saline with Tween-80
[6] = dose: 25.0 mg/kg/injection, schedule: Q01DX009 (ip), vehicle: saline with Tween-80
[7] = dose: 50.0 mg/kg/injection, schedule: Q01DX005 (ip), vehicle: saline with Tween-80

## CC(=O)Oc1c(OC(C)=O)c(C=O)c2c(OC(C)=O)c(-c3c(C)cc4c(C(C)C)c(OC(C)=O)c(OC(C)=O)c(C=O)c4c3OC(C)=O)c(C)cc2c1C(C)C
dose: 12.5 mg/kg/injection, schedule: Q01DX005 (ip), vehicle: Klucel (hydroxypropylcellulose) (HPC)
  T/C: 102 % of control
dose: 25.0 mg/kg/injection, schedule: Q01DX005 (ip), vehicle: Klucel (hydroxypropylcellulose) (HPC)
  T/C: 107 % of control
[1]
  T/C: 103 % of control and 111 % of control

## CC(=O)OCc1cc(=O)n(C)c2c3c4c(cc12)c(C)cc(=O)n4CO3
dose: 12.5 mg/kg/injection, schedule: Q01DX009 (ip), vehicle: Klucel (hydroxypropylcellulose) (HPC)
  T/C: 123 % of control
dose: 25.0 mg/kg/injection, schedule: Q03HX015 (ip), vehicle: Klucel (hydroxypropylcellulose) (HPC)
  T/C: 173 % of control
dose: 25.0 mg/kg/injection, schedule: Q04DX002 (ip), vehicle: Klucel (hydroxypropylcellulose) (HPC)
  T/C: 121 % of control
dose: 25.0 mg/kg/injection, schedule: Q06HX010 (ip), vehicle: Klucel (hydroxypropylcellulose) (HPC)
  T/C: 152 % of control
[2]
  T/C: 119 % of control and 124 % of control
dose: 50.0 mg/kg/injection, schedule: Q01DX009 (ip), vehicle: Klucel (hydroxypropylcellulose) (HPC)
  T/C: 157 % of control
dose: 50.0 mg/kg/injection, schedule: Q06HX010 (ip), vehicle: Klucel (hydroxypropylcellulose) (HPC)
  T/C: 105 % of control
dose: 100.0 mg/kg/injection, schedule: Q01DX009 (ip), vehicle: Klucel (hydroxypropylcellulose) (HPC)
  T/C: 86 % of control
[3]
  T/C: 155 % of control
[4]
  T/C: 168 % of control
dose: 400.0 mg/kg/injection, schedule: Q01DX001 (ip), vehicle: Klucel (hydroxypropylcellulose) (HPC)
  T/C: 157 % of control and 176 % of control
dose: 800.0 mg/kg/injection, schedule: Q01DX001 (ip), vehicle: Klucel (hydroxypropylcellulose) (HPC)
  T/C: 168 % of control

## C/C=C1/CN2CC[C@@]34c5cc([C@]67C8CCN9C/C(=C/C)[C@H](CC96)C(C(=O)OC)N7c6ccccc68)c(OC)cc5N(C)[C@H]3C2CC1C4C(=O)OC (stereo partly specified)
dose: 5.25 mg/kg/injection, schedule: Q01DX005 (ip), vehicle: Klucel (hydroxypropylcellulose) (HPC)
  T/C: 104 % of control
dose: 10.5 mg/kg/injection, schedule: Q01DX005 (ip), vehicle: Klucel (hydroxypropylcellulose) (HPC)
  T/C: 98 % of control
dose: 21.0 mg/kg/injection, schedule: Q01DX005 (ip), vehicle: Klucel (hydroxypropylcellulose) (HPC)
  T/C: 90 % of control
dose: 42.0 mg/kg/injection, schedule: Q01DX005 (ip), vehicle: Klucel (hydroxypropylcellulose) (HPC)
  T/C: 96 % of control

## COc1ccc(/C=N\NC(=O)CNC(=O)Nc2cccc([N+](=O)[O-])c2)cc1O
dose: 15.0 mg/kg/injection, schedule: Q01DX005 (ip), vehicle: saline with Tween-80
  T/C: 107 % of control
dose: 30.0 mg/kg/injection, schedule: Q01DX005 (ip), vehicle: saline with Tween-80
  T/C: 93 % of control
dose: 60.0 mg/kg/injection, schedule: Q01DX005 (ip), vehicle: saline with Tween-80
  T/C: 89 % of control
dose: 240.0 mg/kg/injection, schedule: Q01DX005 (ip), vehicle: saline with Tween-80
  T/C: 91 % of control and 93 % of control

## O=C1C(CO)=C[C@H](O)[C@H]2O[C@@H]12
dose: 6.25 mg/kg/injection, schedule: Q01DX009 (ip), vehicle: saline + alcohol
  T/C: 119 % of control
dose: 12.5 mg/kg/injection, schedule: Q01DX009 (ip), vehicle: saline + alcohol
  T/C: 152 % of control
dose: 25.0 mg/kg/injection, schedule: Q01DX009 (ip), vehicle: saline + alcohol
  T/C: 152 % of control and 157 % of control
dose: 50.0 mg/kg/injection, schedule: Q01DX009 (ip), vehicle: saline + alcohol
  T/C: 106 % of control

## CC(=O)Nc1ccc(S(=O)(=O)/C(=C/c2ccc(-c3ccc(Br)cc3)o2)c2ccc([N+](=O)[O-])o2)cc1
dose: 50.0 mg/kg/injection, schedule: Q01DX009 (ip), vehicle: suspension in saline
  T/C: 86 % of control
dose: 100.0 mg/kg/injection, schedule: Q01DX009 (ip), vehicle: suspension in saline
  T/C: 104 % of control

## COP(=S)(OC)SCSc1ccc(Cl)cc1
[5]
  T/C: 89 % of control
[6]
  T/C: 91 % of control

## Nc1cccnc1C1OCCO1
dose: 50.0 mg/kg/injection, schedule: Q01DX009 (ip), vehicle: other
  T/C: 100 % of control
dose: 100.0 mg/kg/injection, schedule: Q01DX009 (ip), vehicle: other
  T/C: 103 % of control

## CC1(C)S(=O)(=O)OCCOS1(=O)=O
dose: 3.75 mg/kg/injection, schedule: Q01DX005 (ip), vehicle: Klucel (hydroxypropylcellulose) (HPC)
  T/C: 107 % of control
dose: 7.5 mg/kg/injection, schedule: Q01DX005 (ip), vehicle: Klucel (hydroxypropylcellulose) (HPC)
  T/C: 107 % of control and 111 % of control and 115 % of control
dose: 15.0 mg/kg/injection, schedule: Q01DX005 (ip), vehicle: Klucel (hydroxypropylcellulose) (HPC)
  T/C: 119 % of control

## CC(=O)Oc1ccc2ccccc2c1-c1ccccn1
dose: 12.5 mg/kg/injection, schedule: Q01DX001 (ip), vehicle: saline + alcohol
  T/C: 101 % of control
dose: 25.0 mg/kg/injection, schedule: Q01DX001 (ip), vehicle: saline + alcohol
  T/C: 99 % of control
dose: 50.0 mg/kg/injection, schedule: Q01DX001 (ip), vehicle: saline + alcohol
  T/C: 100 % of control

## CC(O)C(NC(=O)c1ccc([N+](=O)[O-])cc1)C(=O)O (stereo unspecified)
dose: 50.0 mg/kg/injection, schedule: Q01DX005 (ip), vehicle: saline
  T/C: 105 % of control
dose: 100.0 mg/kg/injection, schedule: Q01DX005 (ip), vehicle: saline
  T/C: 102 % of control
dose: 200.0 mg/kg/injection, schedule: Q01DX005 (ip), vehicle: saline
  T/C: 91 % of control

## CC(NC(=O)C(N)Cc1ccc(Cl)cc1)P(=O)(O)O (stereo unspecified)
dose: 12.5 mg/kg/injection, schedule: Q04DX002 (ip), vehicle: saline with Tween-80
  T/C: 100 % of control
dose: 25.0 mg/kg/injection, schedule: Q04DX002 (ip), vehicle: saline with Tween-80
  T/C: 94 % of control
dose: 50.0 mg/kg/injection, schedule: Q04DX002 (ip), vehicle: saline with Tween-80
  T/C: 103 % of control

## CCOC(=O)C1CCc2ccccc2N1 (stereo unspecified)
[7]
  T/C: 99 % of control
dose: 100.0 mg/kg/injection, schedule: Q01DX005 (ip), vehicle: saline with Tween-80
  T/C: 103 % of control
dose: 200.0 mg/kg/injection, schedule: Q01DX005 (ip), vehicle: saline with Tween-80
  T/C: 104 % of control

## NC(Cc1ccccc1)=S=O
dose: 100.0 mg/kg/injection, schedule: Q04DX002 (ip), vehicle: Klucel (hydroxypropylcellulose) (HPC)
  T/C: 97 % of control
[4]
  T/C: 95 % of control

## S=C1SC2=NCCN2C2=NCCN12
dose: 11.25 mg/kg/injection, schedule: Q01DX001 (ip), vehicle: Klucel (hydroxypropylcellulose) (HPC)
  T/C: 96 % of control
dose: 22.5 mg/kg/injection, schedule: Q01DX001 (ip), vehicle: Klucel (hydroxypropylcellulose) (HPC)
  T/C: 102 % of control
dose: 45.0 mg/kg/injection, schedule: Q01DX001 (ip), vehicle: Klucel (hydroxypropylcellulose) (HPC)
  T/C: 100 % of control

## CC/C(=C(/CC)c1ccc(OCC(=O)N/N=C2\CCC3C4CCc5cc(O)ccc5C4=CCC23C)cc1)c1ccc(OCC(=O)N/N=C2/CCC3C4CCc5cc(O)ccc5C4=CCC23C)cc1 (stereo unspecified)
[2]
  T/C: 96 % of control
dose: 100.0 mg/kg/injection, schedule: Q01DX001 (ip), vehicle: Klucel (hydroxypropylcellulose) (HPC)
  T/C: 95 % of control
[3]
  T/C: 87 % of control

## CC(=O)Nc1nnc(-c2coc3ccc(C)cc3c2=O)s1
dose: 6.25 mg/kg/injection, schedule: Q01DX005 (ip), vehicle: saline with Tween-80
  T/C: 99 % of control
dose: 12.5 mg/kg/injection, schedule: Q01DX005 (ip), vehicle: saline with Tween-80
  T/C: 88 % of control and 89 % of control
dose: 25.0 mg/kg/injection, schedule: Q01DX005 (ip), vehicle: saline with Tween-80
  T/C: 86 % of control
[7]
  T/C: 86 % of control

## CC1(OC(=O)c2ccccc2)CC2(CCCCC2)N=N1 (stereo unspecified)
[5]
  T/C: 113 % of control
[6]
  T/C: 105 % of control
dose: 50.0 mg/kg/injection, schedule: Q01DX009 (ip), vehicle: saline with Tween-80
  T/C: 112 % of control
dose: 100.0 mg/kg/injection, schedule: Q01DX009 (ip), vehicle: saline with Tween-80
  T/C: 107 % of control
dose: 200.0 mg/kg/injection, schedule: Q01DX009 (ip), vehicle: saline with Tween-80
  T/C: 105 % of control

## C=CCn1c(C)nc2c(cnn2C)c1=O
[1]
  T/C: 101 % of control
dose: 100.0 mg/kg/injection, schedule: Q01DX005 (ip), vehicle: Klucel (hydroxypropylcellulose) (HPC)
  T/C: 110 % of control
dose: 200.0 mg/kg/injection, schedule: Q01DX005 (ip), vehicle: Klucel (hydroxypropylcellulose) (HPC)
  T/C: 104 % of control

## O=C1OC(c2ccccc2)N/C1=C\c1ccc(OCc2ccccc2)c(OCc2ccccc2)c1 (stereo unspecified)
dose: 100.0 mg/kg/injection, schedule: Q04DX003 (ip), vehicle: Klucel (hydroxypropylcellulose) (HPC)
  T/C: 94 % of control
dose: 200.0 mg/kg/injection, schedule: Q04DX003 (ip), vehicle: Klucel (hydroxypropylcellulose) (HPC)
  T/C: 87 % of control
dose: 400.0 mg/kg/injection, schedule: Q04DX003 (ip), vehicle: Klucel (hydroxypropylcellulose) (HPC)
  T/C: 90 % of control
